Molecular target: EpnF (Streptomyces hygroscopicus, UniProt V5RMU9)
Experiment: Enzyme kinetic analysis by SPE-MS/MS assay
Type: biochemical
Conditions: relative to 11n
Procedure: SPE-MS/MS analyses were carried out on an Agilent RapidFire 365 High-Throughput Mass Spectrometry System with 6495 triple quadrupole mass spectrometer. Determination of initial velocity: EpnF stock at 100 μM was diluted 10-fold in EpnF Buffer to a 10 μM working solution, which was further diluted to 8 concentrations (10-0.005 μM) in EpnF Buffer (intermediate volume 1350 μL, concentrations calculated for 1500 μL theoretical final volume corresponding to addition of substrate solutions below). The 8 EpnF enzyme dilutions were aliquoted (90 μL) into the corresponding 8 tubes of PCR tube strips (12 strips, one per time point; Thermo Scientific, AB-2000). The β-ketoacid 11 (20 mM in EtOH) was diluted to 10 μM in EpnF Buffer, then 10 μL of this solution was added to each of the tubes (1 μM final concentration, 100 μL final volume) to initiate the reaction. Samples were incubated in a heated shaker at 37° C. and 225 rpm for up to 120 min, and one tube strip was removed at each time point. Each tube was quenched with 5% formic acid in EpnF Buffer (100 μL), pipetted vigorously, and flash frozen on dry ice. Samples were thawed then centrifuged to precipitate protein and transferred to a conical-bottom 96-well plate (Thermo Scientific/Nunc, 249944) for SPE-MS/MS analysis. Measurement of Km and Vmax: Using the data from the initial velocity experiments above, an appropriate EpnF enzyme concentration was selected for each β-ketoacid 11 at which the rate of conversion to the epoxyketone 12 remained linear at 10 min (0.50 μM for 11n and 0.05 μM for all other substrates). Each substrate (20 mM in EtOH) was diluted to 1 mM in EpnF Buffer, then diluted to 8 concentrations (100-0.5 μM) in EpnF Buffer (intermediate volume 1350 μL, concentrations calculated for 1500 μL theoretical volume corresponding to addition of enzyme solutions below). The 8 substrate dilutions were aliquoted (90 μL) into the corresponding 8 tubes of PCR tube strips (12 strips, one per time point; Thermo Scientific, AB-2000). The EpnF enzyme stock solution was diluted in EpnF Buffer to the appropriate concentration for each substrate, then 10 μL of this solution was added to each of the tubes (100 μL final volume) to initiate the reaction. For the 0-min time point, 5% formic acid in EpnF Buffer was added to the β-ketoacid substrate before addition of the enzyme. Samples were incubated in a heated shaker at 37° C. and 225 rpm for up to 10 min, and one tube strip was removed at each time point. Each tube was quenched by addition of 5% formic acid in EpnF Buffer (100 μL), pipetted vigorously, and flash frozen on dry ice. Samples were thawed then centrifuged to precipitate proteins and the supernatants were transferred to a conical-bottom 96-well plate (Thermo Scientific/Nunc, 249944) for SPE-MS/MS analysis. Km and Vmax values for each substrate were calculated by Michaelis-Menten analysis. To obtain a quantitative assessment of EpnF substrate specificity, we developed a kinetic assay (10 min) using SPE-MS/MS (solid-phase extraction/triple quadrupole mass spectrometry; Agilent RapidFire 365 with 6495 MS) to enable direct detection of both substrates and products.

EpnF, sequence (V5RMU9 entry or part of it): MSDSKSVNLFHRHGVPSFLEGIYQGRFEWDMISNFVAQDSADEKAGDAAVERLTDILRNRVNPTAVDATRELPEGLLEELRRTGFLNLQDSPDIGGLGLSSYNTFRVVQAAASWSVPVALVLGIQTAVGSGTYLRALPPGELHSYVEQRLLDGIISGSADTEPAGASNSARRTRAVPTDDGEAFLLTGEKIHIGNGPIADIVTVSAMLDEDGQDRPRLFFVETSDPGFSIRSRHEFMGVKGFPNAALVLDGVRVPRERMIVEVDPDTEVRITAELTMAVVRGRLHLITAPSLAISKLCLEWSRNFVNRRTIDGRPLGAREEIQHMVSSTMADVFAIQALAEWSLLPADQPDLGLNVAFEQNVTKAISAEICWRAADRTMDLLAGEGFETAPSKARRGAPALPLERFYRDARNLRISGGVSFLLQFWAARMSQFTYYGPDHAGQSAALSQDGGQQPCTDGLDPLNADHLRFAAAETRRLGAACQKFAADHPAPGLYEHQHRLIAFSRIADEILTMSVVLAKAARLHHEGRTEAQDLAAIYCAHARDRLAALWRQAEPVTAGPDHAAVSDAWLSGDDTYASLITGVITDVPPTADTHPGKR

For CC(C)CCCCC(=O)N[C@@H](CO)C(=O)N[C@@H](CC(C)C)C(=O)C(C)(C)C(=O)O [Compound 11a, (4S)-4-[(2S)-3-Hydroxy-2-(6-methylheptanamido)propanamido]-2,2,6-trimethyl-3-oxoheptanoic acid], the “converted more efficiently than 11n” value was “≈ 20 fold”.

— patent US20260234116A1, “CYTOTOXIC EPOXYKETONE COMPOUNDS, PRECURSORS, COMPOSITIONS, AND METHODS OF USE” (Memorial Sloan-Kettering Cancer Center, priority 2023, published 2026)
